Laboratory results taken from PubChem BioAssay (NCI).
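1) Cells in 96-well plates. 2) Compound, 48 h, 5 concentrations. 3) Linear interpolation between surrounding doses. 4) Unreached endpoint = highest concentration. Here, GI50 denotes the concentration required for 50% inhibition of growth. TGI denotes the concentration required for complete inhibition of growth.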

Key:
Experiment in all cases: NCI anticancer screen, dose series, 48 h
[1] = system: SF-295 CNS
[2] = system: SK-OV-3 ovarian
[3] = system: HOP-92 NSCLC
[4] = system: SF-539 CNS
[5] = system: DU-145 prostate
[6] = system: OVCAR-8 ovarian
[7] = system: MDA-MB-231 breast
[8] = system: SNB-75 CNS
[9] = system: TK-10 renal
[10] = system: OVCAR-5 ovarian
[11] = system: NCI-H522 lung
[12] = system: UO-31 renal
[13] = system: UACC-257 melanoma
[14] = system: HT29 colon
[15] = system: LOX IMVI melanoma
[16] = system: CCRF-CEM leukemia
[17] = system: EKVX NSCLC
[18] = system: IGROV1 ovarian
[19] = system: KM12 colon
[20] = system: HCC-2998 colon
[21] = system: COLO 205 colon
[22] = system: BT-549 breast
[23] = system: T-47D breast
[24] = system: MDA-MB-468 breast
[25] = system: HL-60(TB) leukemia
[26] = system: SR leukemia
[27] = system: OVCAR-3 ovarian
[28] = system: SK-MEL-5 melanoma
[29] = system: SK-MEL-2 melanoma
[30] = system: ACHN renal
[31] = system: UACC-62 melanoma
[32] = system: HCT-116 colon
[33] = system: PC-3 prostate
[34] = system: MOLT-4 leukemia
[35] = system: MDA-MB-435
[36] = system: SF-268 CNS
[37] = system: 786-0 renal
[38] = system: SW-620 colon
[39] = system: NCI/ADR-RES ovarian
[40] = system: U251 CNS
[41] = system: MALME-3M melanoma
[42] = system: RXF 393 renal
[43] = system: SK-MEL-28 melanoma
[44] = system: A549 NSCLC
[45] = system: CAKI-1 renal
[46] = system: SNB-19 CNS
[47] = system: HCT-15 colon
[48] = system: NCI-H226 lung
[49] = system: OVCAR-4 ovarian
[50] = system: SN12C renal
[51] = system: A498 renal
[52] = system: NCI-H460 lung
[53] = system: NCI-H23 lung
[54] = system: M14 melanoma
[55] = system: HS 578T breast
[56] = system: HOP-62 NSCLC
[57] = system: MCF7 breast

SMILES: COc1cc2c3c(n(CCCNC(C)C)c(=O)c2cc1OC)-c1nc2c(cc1C3=O)OCO2
- GI50 [1]: 0.348 µM
- TGI [1]: 15 µM
- GI50 [2]: 2.04 µM
- TGI [2]: 19.2 µM
- GI50 [3]: 10.6 µM
- TGI [3]: 24.9 µM
- GI50 [4]: 1.52 µM
- TGI [4]: 7.26 µM
- GI50 [5]: 1.05 µM
- TGI [5]: 16.6 µM
- GI50 [6]: 5.28 µM
- TGI [6]: 24.9 µM
- GI50 [7]: 1.42 µM
- TGI [7]: 2.81 µM
- GI50 [8]: 0.825 µM
- TGI [8]: 12.4 µM
- GI50 [9]: 19.6 µM
- TGI [9]: 35.4 µM
- GI50 [10]: 13 µM
- TGI [10]: 26.3 µM
- GI50 [11]: 0.768 µM
- TGI [11]: 27.6 µM
- GI50 [12]: 5.86 µM
- TGI [12]: 20.4 µM
- GI50 [13]: 13.8 µM
- TGI [13]: 29 µM
- GI50 [14]: 1.35 µM
- TGI [14]: 22.7 µM
- GI50 [15]: 1.01 µM
- TGI [15]: 2.21 µM
- GI50 [16]: 0.0437 µM
- TGI [16]: 1.32 µM
- GI50 [17]: 10.7 µM
- TGI [17]: 23.6 µM
- GI50 [18]: 14.8 µM
- TGI [18]: 30.7 µM
- GI50 [19]: 12.8 µM
- TGI [19]: 28.6 µM
- GI50 [20]: 9.38 µM
- TGI [20]: 21.5 µM
- GI50 [21]: 3.98 µM
- TGI [21]: 23 µM
- GI50 [22]: 4.17 µM
- TGI [22]: 23.1 µM
- GI50 [23]: 4.76 µM
- TGI [23]: 28.6 µM
- GI50 [24]: 0.492 µM
- TGI [24]: 6.08 µM
- GI50 [25]: 3.77 µM
- TGI [25]: 21.2 µM
- GI50 [26]: 0.359 µM
- TGI [26]: 2.77 µM
- GI50 [27]: 14.3 µM
- TGI [27]: 28.3 µM
- GI50 [28]: 1.39 µM
- TGI [28]: 5.35 µM
- GI50 [29]: 21.1 µM
- TGI [29]: 40.6 µM
- GI50 [30]: 1.5 µM
- TGI [30]: 13.2 µM
- GI50 [31]: 9.84 µM
- TGI [31]: 23.6 µM
- GI50 [32]: 1.04 µM
- TGI [32]: 2.28 µM
- GI50 [33]: 2.72 µM
- TGI [33]: 21.9 µM
- GI50 [34]: 0.0457 µM
- TGI [34]: 2.13 µM
- GI50 [35]: 2.16 µM
- TGI [35]: 10.9 µM
- GI50 [36]: 1.17 µM
- TGI [36]: 23.4 µM
- GI50 [37]: 1.55 µM
- TGI [37]: 2.98 µM
- GI50 [38]: 0.724 µM
- TGI [38]: 21.3 µM
- GI50 [39]: 1.52 µM
- TGI [39]: 3.25 µM
- GI50 [40]: 0.588 µM
- TGI [40]: 19.8 µM
- GI50 [41]: 1.54 µM
- TGI [41]: 3.01 µM
- GI50 [42]: 2.26 µM
- TGI [42]: 14.7 µM
- GI50 [43]: 4.94 µM
- TGI [43]: 18.2 µM
- GI50 [44]: 2.52 µM
- TGI [44]: 24.2 µM
- GI50 [45]: 2.43 µM
- TGI [45]: 19.2 µM
- GI50 [46]: 2 µM
- TGI [46]: 18.7 µM
- GI50 [47]: 1.21 µM
- TGI [47]: 2.61 µM
- GI50 [48]: 2.22 µM
- TGI [48]: 13.3 µM
- GI50 [49]: 17.1 µM
- TGI [49]: 39.9 µM
- GI50 [50]: 10.6 µM
- TGI [50]: 23.5 µM
- GI50 [51]: 12.2 µM
- TGI [51]: 27 µM
- GI50 [52]: 0.294 µM
- TGI [52]: 11.6 µM
- GI50 [53]: 0.587 µM
- TGI [53]: 12.4 µM
- GI50 [54]: 3.42 µM
- TGI [54]: 18.1 µM
- GI50 [55]: 11.8 µM
- TGI [55]: 33 µM
- GI50 [56]: 0.474 µM
- TGI [56]: 18.5 µM
- GI50 [57]: 0.101 µM
- TGI [57]: 3.07 µM
